Results as given in patent US5326787A, “Cycloalkyl N-hydroxy derivatives having lipoxygenase inhibitory activity” (Abbott Laboratories, priority 1993, dated 1994).

Key:
5-Lipoxygenase = target: T1, 5-Lipoxygenase (Homo sapiens, UniProt P09917); test: Calcium ionophore-induced LTB4 biosynthesis in human whole blood; type: cell-based; conditions: human heparinized whole blood, 15 min preincubation at 37° C., A23187 8.3 μM, 30 min, LTB4 by radioimmunoassay; read-out: IC50 against 5-Lipoxygenase from Stimulated LTB4 Formation in Human Whole Blood
T1 construct: from tissue; host or cells: human heparinized whole blood (endogenous enzyme of the blood leukocytes)
T1 sequence (P09917 1-674): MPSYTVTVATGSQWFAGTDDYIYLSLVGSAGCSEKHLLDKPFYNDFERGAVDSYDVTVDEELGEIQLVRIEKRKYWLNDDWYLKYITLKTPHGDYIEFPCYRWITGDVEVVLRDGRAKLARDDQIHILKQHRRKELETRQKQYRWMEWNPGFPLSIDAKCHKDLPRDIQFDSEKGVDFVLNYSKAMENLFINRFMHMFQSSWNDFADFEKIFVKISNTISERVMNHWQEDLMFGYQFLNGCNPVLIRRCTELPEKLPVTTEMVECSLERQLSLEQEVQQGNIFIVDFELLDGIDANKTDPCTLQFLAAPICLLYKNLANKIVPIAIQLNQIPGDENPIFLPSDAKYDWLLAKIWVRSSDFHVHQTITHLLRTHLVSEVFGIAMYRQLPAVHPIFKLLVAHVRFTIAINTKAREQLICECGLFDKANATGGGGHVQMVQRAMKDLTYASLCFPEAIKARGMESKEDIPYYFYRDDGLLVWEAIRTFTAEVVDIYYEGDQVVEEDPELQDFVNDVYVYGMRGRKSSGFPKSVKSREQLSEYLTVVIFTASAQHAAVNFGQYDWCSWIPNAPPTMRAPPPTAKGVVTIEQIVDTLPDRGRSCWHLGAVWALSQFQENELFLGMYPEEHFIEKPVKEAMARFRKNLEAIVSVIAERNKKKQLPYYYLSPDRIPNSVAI
Description: Inhibition of leukotriene biosynthesis was evaluated in an assay, involving calcium ionophore-induced LTB4 biosynthesis expressed human whole blood. […] The methanol extract was analyzed for LTB4 using a commercially available radioimmunoassay.

[1] = tested on: biosynthesis of leukotrienes; test: Inhibition of leukotriene biosynthesis in vivo after oral administration, rat peritoneal anaphylaxis model; conditions: percent inhibition vs mean of control group, oral gavage 100 μmoles/kg one hour prior to antigen challenge, peritoneal fluids 15 minutes after challenge
Description: Inhibition of the biosynthesis of leukotrienes in vivo after oral administration of compound was determined using a rat peritoneal anaphylaxis model in a similar manner as that described by Young and coworkers (Young, P. R.; Dyer, R. D.; Carter, G. W. Fed. Proc., Fed. Am. Soc. Exp. Biol. 1985, 44, 1185). In this model rats were injected intraperitoneally (ip) with rabbit antibody to bovine serum albumin (BSA) and three hours later injected ip with BSA to induce an antigen-antibody response. Rats were sacrificed 15 minutes after this challenge and the peritoneal fluids were collected and analyzed for leukotriene levels. Test compounds were administered by gavage one hour prior to the antigen challenge. Percent inhibition values were determined by comparing the treatment group to the mean of the control group.

SMILES | IC50 (5-Lipoxygenase) [nM] | inhibition at 100 µmol/kg [1] [%]
NC(=O)N(O)C[C@H]1C[C@@H]1C1CC1 (relative stereo) [Example 1, N-1-(trans-2-cyclopropylcyclopropylmethyl)-N-hydroxyurea] | < 300 | 96
NC(=O)N(O)CC1CCC1 [Example 2, N-cyclobutylmethyl-N-hydroxyurea] | 900 | 92
NC(=O)N(O)CC1CCCC1 [Example 3, N-cyclopentylmethyl-N-hydroxyurea] | 700 | 83
NC(=O)N(O)CC1CCCCC1 [Example 4, N-hydroxy-N-1-(1-cyclohexyl)methylurea] | 1100 | 64
NC(=O)N(O)CC1CCCCCC1 [Example 5, N-hydroxy-N-1-(1-cycloheptyl)methylurea] | < 1500 | –
